Measured values: patent US7105506B2, “Tetracyclic compounds as PDE5-inhibitors” (Lilly Icos LLC, priority 2001, dated 2006)

Each compound was assayed against T1, recombinant human PDE5 (Homo sapiens, UniProt O76074) (assay: PDE5 inhibition (cGMP-PDE one-step assay)). Details: In vitro.
T1 construct: host or cells: Saccharomyces cerevisiae protease-deficient strain BJ2-54 (ATCC 74465)
Format: biochemical
Description: The compounds of structural formula (I) were tested for an ability to inhibit PDE5. The ability of a compound to inhibit PDE5 activity is related to the IC50 value for the compound, i.e., the concentration of inhibitor required for 50% inhibition of enzyme activity. The IC50 value for compounds of structural formula (I) were determined using recombinant human PDE5.
Phosphodiesterase activity of the preparations was determined as follows. PDE assays utilizing a charcoal separation technique were performed essentially as described in Loughney et al. (1996). In this assay, PDE activity converts [32P]cAMP or [32P]cGMP to the corresponding [32P]5′-AMP or [32P]5′-GMP in proportion to the amount of PDE activity present. The [32P]5′-AMP or [32P]5′-GMP then was quantitatively converted to free [32P]phosphate and unlabeled adenosine or guanosine by the action of snake venom 5′-nucleotidase. […] The assay was performed at 30° C. in a 100 μL reaction mixture containing (final concentrations) 40 mM iris HCl (pH 8.0), 1 μM ZnSO4, 5 mM MgCl2, and 0.1 mg/mL bovine serum albumin (BSA). PDE enzyme was present in quantities that yield <30% total hydrolysis of substrate (linear assay conditions). The assay was initiated by addition of substrate ([…] [^32P]cAMP or cGMP), and the mixture was incubated for 12 minutes. Seventy-five (75) […] of Crotalus atrox venom then was added, and the incubation was continued for 3 minutes (15 minutes total). The reaction was stopped by addition of 200 μL of activated charcoal (25 mg/mL suspension in 0.1 M NaH2PO4, pH 4). After centrifugation. (750×g for 3 minutes) to sediment the charcoal, a sample of the supernatant was taken for radioactivity determination in a scintillation counter and the PDE activity was calculated.
cGMP-PDE activity of compounds of the present invention was measured using a one-step assay adapted from Wells et al., Biochim. Biophys. Acta, 384, 430 (1975). The reaction medium contained 50 mM Tris-HCl, pH 7.5, 5 mM magnesium acetate, 250 μg/ml 5′-Nucleotidase, 1 mM EGTA, and 0.15 μM 8-[H^3]-cGMP. Unless otherwise indicated, the enzyme used was a human recombinant PDE5 (ICOS Corp., Bothell, Wash.).
Compounds of the invention were dissolved in DMSO finally present at 2% in the assay.

| SMILES | IC50 |
| --- | --- |
| CN1CC(=O)N2[C@H](c3ccc4c(c3)OCO4)c3[nH]c4ccccc4c3[C@@H](c3ccccc3)[C@@H]2C1=O (racemic) [Example 3, (+−, 6,12a cis-12,12a-trans)-6-Benzo-(1,3)-dioxol-5-yl-methyl-12-phenyl-2,3,6,7,12,12a-hexahydro-pyrazino[1′,2′:1,6]pyrido[3,4-b]indole-1,4-dione] | 47 nM |
| C[C@@H]1c2c([nH]c3ccccc23)[C@@H](c2ccc3c(c2)OCO3)N2C(=O)CN(C)C(=O)[C@@H]12 (racemic) [Example 4a, (+−, cis, trans methyl)-6-Benzo[1,3]dioxol-5-yl-2,12-dimethyl-2,3,6,7,12,12a-hexahydropyrazino[1′,2′:1,6]pyrido[3,4-b]indole-1,3-dione] | 4 nM |
| C[C@@H]1c2c([nH]c3ccccc23)[C@H](c2ccc3c(c2)OCO3)N2C(=O)CN(C)C(=O)[C@@H]12 (racemic) [Example 4b, (+−, trans, trans methyl)-6-Benzo[1,3]dioxol-5-yl-2,12-dimethyl-2,3,6,7,12,12a-hexahydropyrazino[1′,2′:1,6]pyrido[3,4-b]indole-1,3-dione] | 63 nM |
| CN1CC(=O)N2[C@H](c3ccc4c(c3)OCO4)c3[nH]c4ccccc4c3C[C@]2(C)C1=O [Example 1, (6R,12aR)-6-Benzo[1,3]dioxol-5-yl-2,12a-dimethyl-2,3,6,7,12,12a-hexahydro-pyrazino-[1,2′:1,6]pyrido[3,4-b]indole-1,4-dione] | 46 nM |
| CN1CC(=O)N2[C@H](Cc3c([nH]c4ccccc34)[C@@]2(C)c2ccc3c(c2)OCO3)C1=O [Example 2a, (+−, Cis)-6-Benzo[1,3]dioxol-5-yl-2,6-dimethyl-2,3,6,7,12,12a-hexahydropyrazino-[1′,2′:1,6]pyrido[3,4-b]indole-1,4-dione] | 685 nM |
| CN1CC(=O)N2[C@H](Cc3c([nH]c4ccccc34)[C@]2(C)c2ccc3c(c2)OCO3)C1=O [Example 2b, (+−, trans)-6-Benzo[1,3]dioxol-5-yl-2,6-dimethyl-2,3,6,7,12,12a-hexahydropyrazino-[1′,2′:1,6]pyrido[3,4-b]indole-1,4-dione] | 260 nM |
| CN1CC(=O)N2[C@H](Cc3c([nH]c4ccccc34)[C@@]2(O)c2ccc3c(c2)OCO3)C1=O [Example 5, (6S,12aR)-6-Benzo[1,3]dioxol-5-yl-6-hydroxy-2-methyl-2,3,6,7,12,12a-hexahydropyrzino[1′,2′:1,6]pyrido[3,4-b]indole-1,4-dione] | 142 nM |
